Reference: ChEMBL document CHEMBL1148662, “Activation of mitogen activated protein kinase (MAPK) during D-galactosamine intoxication in the rat liver” (2006)
Calls of active or inactive are those of the source. No cut-off for these calls is given here.

Assays:
Rattus norvegicus [1] = experiment: Increase in hepatic vitamin C level in Wistar rat at 1 g/kg, ip after 24 hrs relative to control; format: functional
Rattus norvegicus [2] = experiment: Increase in plasma glutamate oxaloacetate transaminase level in Wistar rat at 1 g/kg, ip after 12 hrs relative to control; format: functional
Rattus norvegicus [3] = experiment: Increase in phosphorylated p38 MAPK level in Wistar rat at 1 g/kg, ip after 6 hrs relative to control; format: functional, organism-based
Rattus norvegicus [4] = experiment: Increase in hepatic vitamin C level in Wistar rat at 1 g/kg, ip after 1.5 hrs relative to control; format: functional
Rattus norvegicus [5] = experiment: Increase in plasma glutamate pyruvate transaminase level in Wistar rat at 1 g/kg, ip after 12 hrs relative to control; format: functional
Rattus norvegicus [6] = experiment: Increase in hepatic vitamin C level in Wistar rat at 1 g/kg, ip after 3 hrs relative to control; format: functional
Rattus norvegicus [7] = experiment: Increase in plasma glutamate oxaloacetate transaminase level in Wistar rat at 1 g/kg, ip after 6 hrs relative to control; format: functional
Rattus norvegicus [8] = experiment: Increase in plasma glutamate pyruvate transaminase level in Wistar rat at 1 g/kg, ip after 6 hrs relative to control; format: functional
Rattus norvegicus [9] = experiment: Increase in plasma glutamate pyruvate transaminase level in Wistar rat at 1 g/kg, ip after 24 hrs relative to control; format: functional
Rattus norvegicus [10] = experiment: Increase in plasma glutamate oxaloacetate transaminase level in Wistar rat at 1 g/kg, ip after 24 hrs relative to control; format: functional
Rattus norvegicus [11] = experiment: Increase in hepatic vitamin C level in Wistar rat at 1 g/kg, ip after 12 hrs relative to control; format: functional
Rattus norvegicus [12] = experiment: Increase in plasma glutamate oxaloacetate transaminase level in Wistar rat at 1 g/kg, ip after 1.5 hrs relative to control; format: functional
Rattus norvegicus [13] = experiment: Increase in phosphorylated JNK level in Wistar rat at 1 g/kg, ip after 3 hrs relative to control; format: functional, organism-based
Rattus norvegicus [14] = experiment: Increase in plasma glutamate pyruvate transaminase level in Wistar rat at 1 g/kg, ip after 1.5 hrs relative to control; format: functional
Rattus norvegicus [15] = experiment: Increase in phosphorylated ERK level in Wistar rat at 1 g/kg, ip after 3 hrs relative to control; format: functional, organism-based
Rattus norvegicus [16] = experiment: Increase in hepatic vitamin C level in Wistar rat at 1 g/kg, ip after 6 hrs relative to control; format: functional
Rattus norvegicus [17] = experiment: Increase in plasma glutamate pyruvate transaminase level in Wistar rat at 1 g/kg, ip after 3 hrs relative to control; format: functional
Rattus norvegicus [18] = experiment: Increase in plasma glutamate oxaloacetate transaminase level in Wistar rat at 1 g/kg, ip after 3 hrs relative to control; format: functional

N[C@H]1C(O)O[C@H](CO)C(O)[C@@H]1O (single isomer, unassigned) [GLUCOSAMINE]
Activity (Rattus norvegicus [1]): 978 nmol/g | Activity (Rattus norvegicus [2]): 793 nmol/g | Activity (Rattus norvegicus [3]): Active | Activity (Rattus norvegicus [4]): 1571 nmol/g | Activity (Rattus norvegicus [5]): 426 nmol/g | Activity (Rattus norvegicus [6]): 1137 nmol/g | Activity (Rattus norvegicus [7]): 517 nmol/g | Activity (Rattus norvegicus [8]): 295 nmol/g | Activity (Rattus norvegicus [9]): 1519 nmol/g | Activity (Rattus norvegicus [10]): 2560 nmol/g | Activity (Rattus norvegicus [11]): 1104 nmol/g | Activity (Rattus norvegicus [12]): 52.3 nmol/g | Activity (Rattus norvegicus [13]): Active | Activity (Rattus norvegicus [14]): 25.8 nmol/g | Activity (Rattus norvegicus [15]): Active | Activity (Rattus norvegicus [16]): 1118 nmol/g | Activity (Rattus norvegicus [17]): 49.7 nmol/g | Activity (Rattus norvegicus [18]): 124 nmol/g
